Consider seven molecules from ChEMBL document CHEMBL1121576, “Congeners of the alpha conformer of dopamine derived from octahydrobenz[h]isoquinoline” (1980).

Common to all, as to type: functional
The species entered for test [1] is Felis catus. Description: Tested for inhibition of postganglionic cardioaccelerator nerve in the cat. The settings on record: for ED50: Felis catus, read-out: ID50 (the source's name).
Test [2] has as its system Felis catus. Description: Percent reduction in blood pressure after iv administration of 1 umol/kg of compound in anesthetized cat.
For test [3], the species on record is Felis catus. Description: Tested for inhibitory activity against postganglionic cardioaccelerator nerve relative to apomorphine.
Test [4] deals with Felis catus. Description: Percent reduction in heart rate after iv administration of 1 umol/kg of compound in anesthetized cats.

For the molecule `Br.Oc1cc2c(cc1O)C1CNCCC1CC2` (stereo in doubt; 21), the ID50 in test [1] stood at 0.31 µM/kg. Further, the Reduction came to 27.9% in test [2] and 13.6 beats min-1 in test [4]. This molecule returned a Relative activity in test [3] of 0.073.

As to `Br.CCN1CC[C@H]2CCc3cc(O)c(O)cc3[C@H]2C1`, the ED50 in test [1] was determined as 0.81 µmol/kg. For the same molecule, the Reduction in test [2] is 18.5%; in test [4], 4.3 beats min-1. In test [3], the Relative activity is 0.025.

`Br.CCCN1CC[C@H]2CCc3cc(O)c(O)cc3[C@H]2C1` (relative stereo): the ED50 in test [1] stood at 0.9 µmol/kg. Besides, the Reduction is on record as 31.7% in test [2] and 22.6 beats min-1 in test [4]. The Relative activity in test [3] was 0.02.

In the case of `CN1CCc2cccc3c2[C@H]1Cc1ccc(O)c(O)c1-3` [APOMORPHINE], the ED50 in test [1] came to 0.024 µmol/kg. Besides, the Relative activity in test [3] was determined as 1.

For `Br.Oc1cc2c(cc1O)C1CNCCC1CC2` (trans isomer), the ID50 in test [1] was found to be 0.8 µM/kg. For the same molecule, the Reduction in test [2] was 21.9%; in test [4], 49 beats min-1. In test [3], this molecule gave a Relative activity of 0.27.

For `Br.CCCN1CC[C@H]2CCc3cc(O)c(O)cc3[C@@H]2C1` (relative stereo), in test [1], the ED50 worked out at 0.8 µmol/kg. Further, the Reduction in test [2] amounted to 13.3%; in test [4], 3 beats min-1. The Relative activity in test [3] is on record as 0.026.

Turning to `Br.CN1CCC2CCc3cc(O)c(O)cc3C2C1` (trans isomer), the ED50 in test [1] turned out to be 0.52 µmol/kg. In addition, the Reduction is 14.6% in test [2] and 3.2 beats min-1 in test [4]. The same molecule showed a Relative activity in test [3] of 0.038.
